Experiment: Peracid (peracetic acid) release rate, iodometric titration
Type: physicochemical
Conditions: for Peracid Release (% th. max): time 5 mins, 20° C., 75 rpm, actual PAR/theoretical PAR
Procedure: The invention is illustrated by determining the rate of peracid release as a proportion of the maximum achievable based on acetyl groups available for reaction with perhydroxyl ion.
In this specification the method used to measure peracid generation is an iodometric titration carried out as follows: 25 g of a mixture of 85% by weight IEC A*base detergent, 10% sodium percarbonate and 5% activator, accurately weighed, is added to it deionised water at 20° C. in a beaker stirred by overhead stirrer at 75 rpm at t=0. After predetermined times from 2 mins, a 50 ml sample of the solution is added to a mixture of 15 ml glacial acetic acid and 5 ml of a 10% solution of potassium iodide at 0° C. and titrated against 0.05M sodium thiosulphate using a suitable indicator for iodine as quickly as possible. The theoretical amount of peracid released (PAR) is calculated as follows:
[formula] for TriAED the moles of peracid released is 1, for TAED it is 2.
The actual amount of peracid released (actual PAR) is calculated from the titre of thiosulphate and its molarity, based on the correlation of 2 moles thiosulphate to 1 mole of peracid. The results reported are of actual PAR/theoretical PAR for each time point.
Testing of peracetic acid release rate is carried out according to the standard test method described above.

Peracid Release (% th. max)	peracid release as a proportion of the maximum achievable (within two minutes of being added to water at 20° C.)	Structure (SMILES)
45	less than 70%	CC(=O)N(CCN(C(C)=O)C(C)=O)C(C)=O [TAED, Tetra-acetylethylene diamine]
92		CC(=O)NCCN(C(C)=O)C(C)=O [Tri AED, N,N,N′-triacetylethylene diamine]
